Patent US20220064196A1, “EGFR Inhibitors, Compositions and Methods Thereof” (Betta Pharmaceuticals Co., Ltd., priority 2019, published 2022)
Read-outs that look alike come from different tables or passages of the source.

What was measured:
[1] = molecular target: EGFR L858R/T790M/C797S (Homo sapiens, UniProt P00533, C797S/L858R/T790M); experiment: Kinase assay (mobility shift), EGFR L858R/T790M/C797S; type: biochemical
Experimental: [Worded in the source for another variant; this variant is reported under the same test.] (§1) Test 1 Kinase Assay for EGFR Del19/T790M/C797S and EGFR Wildtype
(§2) Enzyme reaction protocol are as follows:
(§3) 1. Preparing 1* Kinase buffer as followed.
(§4) 2. Preparing Compound Concentration Gradient: Compounds were tested at a concentration of 300 nM, diluted to 100-fold final concentration in 100% DMSO solution in 96-well plates, and compounds were diluted 3 times with Precision, 10 concentrations. Each concentration of the compound was then further diluted to a 5-fold final concentration of the intermediate dilution solution using 1* Kinase buffer.
(§5) 3.5 μL of each of the prepared intermediate dilution compounds was separately added to the compound wells of the 384-well plate, and each concentration was tested for duplicate wells; 5 μL of 5% DMSO was added to the negative control wells and the positive control wells, respectively.
(§6) 4. 2.5-fold final concentration of the kinase solution was prepared using 1*Kinase buffer.
(§7) 5. Add 10 μL of 2.5-fold final concentration of kinase solution to the compound well and positive control well; add 10 μL of 1*Kinase buffer to the negative control well.
(§8) 6. Centrifuge at 1000 rpm for 30 seconds, shake the reaction plate and incubate for 10 minutes at room temperature.
(§9) 7. A mixed solution of 2.5 times the final concentration of ATP and Kinase substrate (5-FAM-EEPLYWSFPAKKK-CONH2) was prepared using 1*Kinase buffer.
(§10) 8. 10 μL of a 2.5-fold final concentration of a mixed solution of ATP and a substrate was added to initiate the reaction.
(§11) 9. Centrifuge the 384-well plate at 1000 rpm for 30 seconds, mix by shaking, and incubate at room temperature for the corresponding time.
(§12) 10. Add 30 μL of the stop solution to stop the kinase reaction, centrifuge at 1000 rpm for 30 seconds, and mix by shaking.
(§13) 11. Read the conversion rate with Caliper EZ Reader.
(§14) Convert conversion values to inhibition values:
(§15) Percent inhibition 32 (max-conversion)/(max-min)*100.
(§16) “max” stands for the mean value of the positive control well ratio; “min” stands for the mean value of the negative control well.
(§17) Fit the data in log(inhibitor) vs. response Variable slope of GraphPad Prism 5 to obtain IC50 values.
(§18) Equation used is: Y=Bottom+(Top-Bottom)/(1+(IC50/X)^HillSlope)

[2] = molecular target: EGFR WT (Homo sapiens, UniProt P00533); experiment: Kinase assay (mobility shift), EGFR wildtype; type: biochemical; settings: top concentration 300 nM
Sequence of EGFR WT (P00533 25-1210): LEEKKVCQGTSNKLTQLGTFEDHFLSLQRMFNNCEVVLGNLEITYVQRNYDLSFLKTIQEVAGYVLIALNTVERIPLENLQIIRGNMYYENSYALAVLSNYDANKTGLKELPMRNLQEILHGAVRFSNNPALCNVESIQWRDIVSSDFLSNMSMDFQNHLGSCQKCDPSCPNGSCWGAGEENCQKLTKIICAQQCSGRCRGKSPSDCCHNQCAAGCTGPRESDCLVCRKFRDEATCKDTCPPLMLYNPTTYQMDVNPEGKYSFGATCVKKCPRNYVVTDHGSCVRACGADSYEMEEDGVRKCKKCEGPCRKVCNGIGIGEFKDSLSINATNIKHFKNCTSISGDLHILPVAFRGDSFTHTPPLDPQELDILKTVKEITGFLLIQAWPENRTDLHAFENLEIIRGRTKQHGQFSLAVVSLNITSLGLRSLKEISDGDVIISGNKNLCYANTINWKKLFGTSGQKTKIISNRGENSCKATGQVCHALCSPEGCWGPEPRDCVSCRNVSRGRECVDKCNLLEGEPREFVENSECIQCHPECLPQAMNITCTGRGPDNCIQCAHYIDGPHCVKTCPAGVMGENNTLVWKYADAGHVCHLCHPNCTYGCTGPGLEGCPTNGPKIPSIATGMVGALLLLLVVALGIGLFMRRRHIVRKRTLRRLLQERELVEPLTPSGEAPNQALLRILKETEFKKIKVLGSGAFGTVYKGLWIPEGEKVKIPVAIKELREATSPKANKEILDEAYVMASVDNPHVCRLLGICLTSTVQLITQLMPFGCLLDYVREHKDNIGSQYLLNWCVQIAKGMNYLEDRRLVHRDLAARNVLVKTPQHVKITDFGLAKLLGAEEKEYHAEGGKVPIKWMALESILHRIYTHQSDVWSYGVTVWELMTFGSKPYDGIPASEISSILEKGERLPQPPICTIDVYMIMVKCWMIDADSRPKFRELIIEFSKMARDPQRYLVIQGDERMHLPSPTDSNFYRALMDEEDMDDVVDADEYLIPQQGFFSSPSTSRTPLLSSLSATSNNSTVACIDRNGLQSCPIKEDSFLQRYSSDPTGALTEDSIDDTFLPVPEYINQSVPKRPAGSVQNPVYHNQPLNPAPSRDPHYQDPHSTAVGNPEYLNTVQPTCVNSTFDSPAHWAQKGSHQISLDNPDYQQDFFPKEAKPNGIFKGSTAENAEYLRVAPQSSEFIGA
Experimental: as §1, §2, §3, §4, §5, §6, §7, §8, §9, §10, §11, §12, §13, §14, §15, §16, §17, §18

[3] = molecular target: Ba/F3-Del19/T790M/C797S (Homo sapiens, UniProt P00533, T790M/C797S, cells depend on it, form not given); experiment: Ba/F3-Del19/T790M/C797S cells proliferation assay (CellTiter Glo); type: cell-based; settings: cell proliferation, 72 h, read-out: Ba/F3-Del19/T790M/C797S IC50
Sequence of Ba/F3-Del19/T790M/C797S (P00533 with tags, fused parts or gaps DEL746-750/T790M/C797S, form open): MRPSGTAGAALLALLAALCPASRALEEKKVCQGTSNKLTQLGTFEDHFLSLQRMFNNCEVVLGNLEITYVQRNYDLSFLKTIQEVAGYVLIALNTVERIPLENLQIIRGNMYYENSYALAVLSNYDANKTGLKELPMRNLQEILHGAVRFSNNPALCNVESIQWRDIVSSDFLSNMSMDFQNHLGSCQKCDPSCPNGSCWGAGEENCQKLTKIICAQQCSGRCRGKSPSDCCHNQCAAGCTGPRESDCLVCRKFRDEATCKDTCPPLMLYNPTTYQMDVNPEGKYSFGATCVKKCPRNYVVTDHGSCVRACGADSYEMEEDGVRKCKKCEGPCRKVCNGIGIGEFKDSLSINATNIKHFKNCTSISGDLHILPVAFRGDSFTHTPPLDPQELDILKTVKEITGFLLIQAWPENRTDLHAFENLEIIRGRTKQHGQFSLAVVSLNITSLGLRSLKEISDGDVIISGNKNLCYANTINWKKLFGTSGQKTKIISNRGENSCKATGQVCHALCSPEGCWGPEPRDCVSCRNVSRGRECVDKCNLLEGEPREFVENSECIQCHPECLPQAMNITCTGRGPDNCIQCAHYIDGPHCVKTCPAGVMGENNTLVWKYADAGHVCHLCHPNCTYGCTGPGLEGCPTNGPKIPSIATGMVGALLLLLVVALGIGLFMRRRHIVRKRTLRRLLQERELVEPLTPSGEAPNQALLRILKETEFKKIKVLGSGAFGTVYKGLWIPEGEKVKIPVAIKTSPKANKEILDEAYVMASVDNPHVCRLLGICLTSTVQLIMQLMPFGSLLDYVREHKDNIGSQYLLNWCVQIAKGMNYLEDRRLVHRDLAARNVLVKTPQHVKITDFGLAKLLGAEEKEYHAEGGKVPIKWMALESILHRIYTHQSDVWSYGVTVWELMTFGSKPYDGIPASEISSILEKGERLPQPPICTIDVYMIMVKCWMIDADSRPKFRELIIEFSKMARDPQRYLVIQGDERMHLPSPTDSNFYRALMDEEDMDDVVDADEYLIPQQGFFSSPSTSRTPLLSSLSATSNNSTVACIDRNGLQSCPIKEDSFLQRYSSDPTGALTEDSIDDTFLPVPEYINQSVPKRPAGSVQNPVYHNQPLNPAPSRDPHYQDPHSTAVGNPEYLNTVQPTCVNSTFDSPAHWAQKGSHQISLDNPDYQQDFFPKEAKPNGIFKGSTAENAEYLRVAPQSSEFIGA
Experimental: (§19) a) The medium was preheated in a 37°0 C. water bath in advance.
(§20) b) Remove the cryogenic vials from the liquid nitrogen tank, quickly put it into a 37° C. water bath, and completely melt it in 1 min.
(§21) c) Transfer the cell suspension to a 15 mL centrifuge tube containing 8 mL medium, centrifuge 1000 rpm, 5 min.
(§22) d) Discard the supernatant, resuspend the cells in 1 mL medium, and transfer to a 75 cm^2 flask containing 15 mL medium, culture the cells in an incubator at 37° C., 5% CO2.
(§23) a) The medium was preheated in a 37° C. water bath in advance.
(§24) b) Collect cell to a 15 mL centrifuged tube, centrifuge at 1000 rpm for 5 min. Discard the supernatant, count, and make the cell density at 1×10^4 cells/mL, then place it in a 37° C., 5% CO2 incubator.
(§25) a) The test compound (20 mM stock solution) was diluted to 200uM with 100% DMSO as starting concentration then 3-fold serial diluted with “9+0” concentrations. in a 96-well dilution plate (Cat # P-05525, Labcyte);
(§26) b) The above compound solution was diluted 1:20 times with culture medium to prepare a 10 fold working solution;
(§27) a) Take cells in log phase growth, centrifuge at 1000 rpm for 5 min, then resuspend the cells with culture medium, then count cells;
(§28) b) Cells were seeded to 96-well cell culture plate with density at 2000 cells/well;
(§29) a) Compounds prepared at step 2 were added to cell plate with 15 μL per well, the final concentrations were 1000,333, 111.1, 37,12.3, 4.1, 1.4, 0.5, 0.2 and 0 nM, and the final concentration of DMSO was 0.5%. The blank control well was a culture medium (0.5% DMSO);
(§30) b) The cells were incubated for an additional 72 h in the incubator.
(§31) a) Remove the 96-well cell culture plate and add 50 μl of CTG reagent (CellTiter Glo kit, promega, Cat # G7573).
(§32) b) Plate was shaked for 2 min and then let it cool for 10 min at room temperature.
(§33) c) The Luminescence signal value was read using a PerkinElmer reader. Experimental data analysis
(§34) Data were analyzed using GraphPad Prism 6.0 software to obtain a fitted curve of compound activity.
(§35) Fit the Compound IC50 from non-linear regression equation:
(§36) Y=Bottom+(Top-Bottom)/(1+10((LogIC50-X)×Hill Slope));
(§37) X: The log of the concentration of the compound; Y: Luminescence value.
(§38) The cells proliferation assay results are expressed with IC50, shown as Table 2.

[4] = molecular target: Ba/F3-L858R/T790M/C797S (Homo sapiens, UniProt P00533, T790M/C797S/L858R, cells depend on it); experiment: Ba/F3-L858R/T790M/C797S cells proliferation assay (CellTiter Glo); type: cell-based; settings: cell proliferation, 72 h, read-out: Ba/F3-L858R/T790M/C797S IC50
Sequence of Ba/F3-L858R/T790M/C797S (P00533 whole entry T790M/C797S/L858R): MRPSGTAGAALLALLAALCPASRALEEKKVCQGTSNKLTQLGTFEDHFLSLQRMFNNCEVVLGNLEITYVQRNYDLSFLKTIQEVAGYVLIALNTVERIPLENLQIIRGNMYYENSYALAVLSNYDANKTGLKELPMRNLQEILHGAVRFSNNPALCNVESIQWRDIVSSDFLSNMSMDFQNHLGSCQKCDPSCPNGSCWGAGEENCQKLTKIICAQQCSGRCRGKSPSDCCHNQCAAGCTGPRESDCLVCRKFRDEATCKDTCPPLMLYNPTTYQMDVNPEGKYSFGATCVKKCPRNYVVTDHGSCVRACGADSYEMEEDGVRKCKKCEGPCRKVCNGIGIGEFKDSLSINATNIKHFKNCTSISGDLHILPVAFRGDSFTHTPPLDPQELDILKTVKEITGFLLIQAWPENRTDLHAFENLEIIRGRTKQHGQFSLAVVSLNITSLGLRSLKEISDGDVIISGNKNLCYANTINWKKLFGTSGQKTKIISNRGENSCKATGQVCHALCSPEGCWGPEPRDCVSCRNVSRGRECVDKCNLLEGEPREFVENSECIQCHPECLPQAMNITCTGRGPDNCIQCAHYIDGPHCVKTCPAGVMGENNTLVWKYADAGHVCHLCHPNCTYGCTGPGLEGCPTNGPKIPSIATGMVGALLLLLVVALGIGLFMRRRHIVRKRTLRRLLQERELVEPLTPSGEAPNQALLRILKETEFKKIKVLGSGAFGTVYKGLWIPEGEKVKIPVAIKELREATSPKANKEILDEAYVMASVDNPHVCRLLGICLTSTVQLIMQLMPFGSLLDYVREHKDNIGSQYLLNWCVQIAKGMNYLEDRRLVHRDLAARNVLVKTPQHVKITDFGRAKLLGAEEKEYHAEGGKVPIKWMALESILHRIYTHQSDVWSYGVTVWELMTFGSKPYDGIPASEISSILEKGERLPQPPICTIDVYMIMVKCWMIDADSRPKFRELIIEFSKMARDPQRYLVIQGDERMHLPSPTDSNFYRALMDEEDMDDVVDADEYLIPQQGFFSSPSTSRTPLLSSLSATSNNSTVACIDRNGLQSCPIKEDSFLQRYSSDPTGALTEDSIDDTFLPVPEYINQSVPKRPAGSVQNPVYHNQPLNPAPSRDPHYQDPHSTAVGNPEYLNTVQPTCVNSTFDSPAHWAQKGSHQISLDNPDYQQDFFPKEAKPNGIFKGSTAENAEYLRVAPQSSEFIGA
Experimental: as §19, §20, §21, §22, §23, §24, §25, §26, §27, §28, §29, §30, §31, §32, §33, §34, §35, §36, §37, §38

[5] = system: A431 (WT); experiment: A431 cells proliferation assay (CellTiter Glo); type: cell-based; settings: Homo sapiens, A-431; cell proliferation, 72 h
Experimental: Test 4 A431 Cells Proliferation Assay
DMEM and 10% FBS and 1% PS.
as §23, §20, §21, §22, §24
a) The test compound (20 mM stock solution) was diluted to 2 mM with 100% DMSO as starting concentration then 3-fold serial diluted with “9+0” concentrations. in a 96-well dilution plate (Cat # P-05525, Labcyte);
b) The above compound solution was diluted 1:40 times with culture medium to prepare a 5 fold working solution;
as §27
b) Cells were seeded to 96-well cell culture plate with density at 5000 cells/well;
a) Compounds prepared at step 2 were added to cell plate with 40 μL per well, the final concentrations were 10000, 3333,1111.1, 370.4, 123.5, 41.2, 13.7, 4.6, 1.5 and 0 nM, and the final concentration of DMSO was 0.5%. The blank control well was a culture medium (0.5% DMSO);
as §30
a) Remove the 96-well cell culture plate and add 60 μl of CTG reagent (CellTiter Glo kit, promega, Cat # G7573).
as §32
c) The Luminescence signal value was read using a PerkinElmer reader.
Experimental Data Analysis
as §34, §35
Y=Bottom+(Top-Bottom)/(1+10((LogIC50-X)×HillSlope));
as §37
The cells proliferation assay results are expressed with IC50, shown as Table 3.

[6] = Pharmacokinetic assay, oral administration; type: in vivo; settings: rat, male SD rats, p.o. 5 mg/kg, plasma, formulation differs per row
Experimental: Test 5 Pharmacokinetic Assay
Male SD rats, oral administration (intragastric administration), 3 in each group. Animals administered by gavage were fasted overnight before the experiment, and the fasting time was from at least 12 hours before administration to 4 hours after administration. The blood was collected using the orbital vein. Time of blood collection by oral administration: 15 min, 30 min, 1 h, 2 h, 4 h, 7 h, 24 h. The blood collection volume was 300 uL, and after anticoagulation with 2.0% EDTA, the blood was centrifuged at 4000 rpm for 5 min, and the blood plasma was taken for about 100 uL, and placed in −20° C. for examination. The plasma sample was analyzed using liquid chromatography tandem mass spectrometry (LC-MS/MS). Plasma concentration-time data for individual animals were analyzed using WinNonlin (V4.1, Pharsight) software with a non-compartmental model and the pharmacokinetic parameters of the test compounds were calculated.

Sequence of EGFR L858R/T790M/C797S (P00533 25-1210 T790M/C797S/L858R): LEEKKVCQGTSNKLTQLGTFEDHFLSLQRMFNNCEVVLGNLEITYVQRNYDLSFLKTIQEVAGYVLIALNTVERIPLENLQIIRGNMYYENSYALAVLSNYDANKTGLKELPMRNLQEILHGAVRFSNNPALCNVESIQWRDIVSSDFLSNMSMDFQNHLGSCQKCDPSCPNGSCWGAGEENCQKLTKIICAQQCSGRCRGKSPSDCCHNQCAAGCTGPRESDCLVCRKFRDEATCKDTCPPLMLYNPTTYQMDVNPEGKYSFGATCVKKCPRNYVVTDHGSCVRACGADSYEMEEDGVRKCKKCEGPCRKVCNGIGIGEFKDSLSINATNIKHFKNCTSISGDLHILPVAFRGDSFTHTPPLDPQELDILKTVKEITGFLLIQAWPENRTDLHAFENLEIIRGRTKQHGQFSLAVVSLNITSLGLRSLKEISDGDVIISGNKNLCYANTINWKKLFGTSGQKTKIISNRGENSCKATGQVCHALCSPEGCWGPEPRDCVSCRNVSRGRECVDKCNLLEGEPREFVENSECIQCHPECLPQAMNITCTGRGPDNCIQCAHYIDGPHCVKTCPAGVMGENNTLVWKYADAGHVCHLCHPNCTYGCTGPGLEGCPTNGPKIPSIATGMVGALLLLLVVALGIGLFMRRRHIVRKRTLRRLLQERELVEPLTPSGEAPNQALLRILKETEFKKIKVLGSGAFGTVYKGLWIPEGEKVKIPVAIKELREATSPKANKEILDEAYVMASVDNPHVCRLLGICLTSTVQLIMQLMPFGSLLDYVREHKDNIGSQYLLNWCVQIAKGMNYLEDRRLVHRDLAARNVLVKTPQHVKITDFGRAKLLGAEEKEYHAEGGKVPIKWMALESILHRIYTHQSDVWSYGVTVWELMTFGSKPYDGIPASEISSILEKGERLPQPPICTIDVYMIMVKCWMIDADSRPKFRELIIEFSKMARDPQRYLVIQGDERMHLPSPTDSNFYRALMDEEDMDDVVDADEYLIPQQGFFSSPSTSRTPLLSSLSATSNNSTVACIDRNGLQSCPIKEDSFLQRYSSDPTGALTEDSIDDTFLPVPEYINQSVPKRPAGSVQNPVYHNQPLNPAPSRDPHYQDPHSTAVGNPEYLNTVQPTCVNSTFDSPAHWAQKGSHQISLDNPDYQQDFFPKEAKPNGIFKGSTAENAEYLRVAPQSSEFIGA

Row | IC50 ([1]; class symbols) [nM] | IC50 [2] [nM] | GI50 ([3]; class symbols) [nM] | GI50 ([4]; class symbols) [nM] | IC50 ([1]; numeric values) [nM] | Compound | GI50 ([3]; numeric values) [nM] | GI50 ([4]; numeric values) [nM] | IC50 [5] [nM] | AUC(0-t) [6] [ng·h/mL] | Cmax [6] [ng/mL] | Tmax [6] [h] | half-life [6] [h]
1 | 2 to 10 | 57 | > 50 | > 50 | – | Cc1cc(Nc2ncc(C)c(Nc3ccccc3P(C)(C)=O)n2)ccc1N1CC2(CC(N)C2)C1 [Example 22, (2-((2-((4-(6-amino-2-azaspiro[3.3]heptan-2-yl)-3-methylphenyl)amino)-5-methylpyrimidin-4-yl)amino)phenyl)dimethylphosphine oxide] | – | – | – | – | – | – | –
2 | – | 37 | 10 to 50 | 10 to 50 | 1.7 | CP(C)(=O)c1ccccc1Nc1nc(Nc2ccc(N3CC4(CC(N)C4)C3)c(Cl)c2)ncc1Cl [Example 26, (2-((2-((4-(6-amino-2-azaspiro[3.3]heptan-2-yl)-3-chlorophenyl)amino)-5-chloropyrimidin-4-yl)amino)phenyl)dimethylphosphine oxide] | – | – | – | – | – | – | –
3 | – | 127 | > 50 | > 50 | 4.4 | COc1cnc(Nc2ccc(N3CCC4(CC3)CC(N)C4)c(C)c2)nc1Nc1ccccc1P(C)(C)=O [Example 27, (2-((2-((4-(2-amino-7-azaspiro[3.5]nonan-7-yl)-3-methylphenyl)amino)-5-methoxypyrimidin-4-yl)amino)phenyl)dimethylphosphine oxide] | – | – | – | – | – | – | –
4 | > 10 | > 300 | > 50 | > 50 | – | Cc1cc(Nc2ncc(C#N)c(Nc3ccccc3P(C)(C)=O)n2)ccc1N1CCC2(CC1)CC(N)C2 [Example 28, 2-((4-(2-amino-7-azaspiro[3.5]nonan-7-yl)-3-methylphenyl)amino)-4-((2-(dimethylphosphoryl)phenyl)amino)pyrimidine-5-carbonitrile] | – | – | – | – | – | – | –
5 | – | 33 | 10 to 50 | 10 to 50 | 1.6 | CP(C)(=O)c1ccccc1Nc1nc(Nc2ccc(N3CCC4(CC3)CC(NC3CCCC3)C4)c(Cl)c2)ncc1Cl [Example 31, (2-((5-chloro-2-((3-chloro-4-(2-(cyclopentylamino)-7-azaspiro[3.5]nonan-7-yl)phenyl)amino)pyrimidin-4-yl)amino)phenyl)dimethylphosphine oxide] | – | – | – | – | – | – | –

More lines, now with the values behind:

Row | Compound | IC50 ([1]; class symbols) [nM] | IC50 [2] [nM] | GI50 ([3]; class symbols) [nM] | GI50 ([4]; class symbols) [nM] | IC50 ([1]; numeric values) [nM] | GI50 ([3]; numeric values) [nM] | GI50 ([4]; numeric values) [nM] | IC50 [5] [nM] | AUC(0-t) [6] [ng·h/mL] | Cmax [6] [ng/mL] | Tmax [6] [h] | half-life [6] [h]
6 | CNC1CCC2(CC1)CN(c1ccc(Nc3ncc(Cl)c(Nc4ccccc4P(C)(C)=O)n3)cc1C)C2 [Example 2, (2-((5-chloro-2-((3-methyl-4-(7-(methylamino)-2-azaspiro[3.5]nonan-2-yl)phenyl)amino)pyrimidin-4-yl)amino)phenyl)dimethylphosphine oxide] | 2 to 10 | 66 | 10 to 50 | 10 to 50 | – | – | – | – | – | – | – | –
7 | Cc1cc(Nc2ncc(Cl)c(Nc3ccccc3P(C)(C)=O)n2)ccc1N1CCC2(CC1)CC(N(C)C)C2 [Example 15, (2-((5-chloro-2-((4-(2-(dimethylamino)-7-azaspiro[3.5]nonan-7-yl)-3-methylphenyl)amino)pyrimidin-4-yl)amino)phenyl)dimethylphosphine oxide] | – | – | – | – | 0.7 | 15.5 | 17 | 27.6 | 6940 | 575 | 6 | 4.38
8 | COc1cnc(Nc2ccc(N3CC4(CC(N)C4)C3)c(C)c2)nc1Nc1ccccc1P(C)(C)=O [Example 23, (2-((2-((4-(6-amino-2-azaspiro[3.3]heptan-2-yl)-3-methylphenyl)amino)-5-methoxypyrimidin-4-yl)amino)phenyl)dimethylphosphine oxide] | – | 167 | > 50 | > 50 | 11 | – | – | – | – | – | – | –
9 | Cc1cc(Nc2ncc(F)c(Nc3ccccc3P(C)(C)=O)n2)ccc1N1CC2(CC(N)C2)C1 [Example 24, (2-((2-((4-(6-amino-2-azaspiro[3.3]heptan-2-yl)-3-methylphenyl)amino)-5-fluoropyrimidin-4-yl)amino)phenyl)dimethylphosphine oxide] | – | 101 | > 50 | > 50 | 18 | – | – | – | – | – | – | –
10 | Cc1cc(Nc2ncc(Cl)c(Nc3ccccc3P(C)(C)=O)n2)ccc1N1CC2(CC(N)C2)C1 [Example 25, (2-((2-((4-(6-amino-2-azaspiro[3.3]heptan-2-yl)-3-methylphenyl)amino)-5-chloropyrimidin-4-yl)amino)phenyl)dimethylphosphine oxide] | – | 28 | – | – | 1.5 | 18 | 24.2 | – | – | – | – | –
11 | CP(C)(=O)c1ccccc1Nc1nc(Nc2ccc(N3CCC4(CC3)CC(NCCO)C4)c(Cl)c2)ncc1Cl [Example 32, (2-((5-chloro-2-((3-chloro-4-(2-((2-hydroxyethyl)amino)-7-azaspiro[3.5]nonan-7-yl)phenyl)amino)pyrimidin-4-yl)amino)phenyl)dimethylphosphine oxide] | – | 65 | > 50 | > 50 | 3.2 | – | – | – | – | – | – | –
